Assay results published in ChEMBL document CHEMBL5321246, “Aurones: A Promising Scaffold to Inhibit SARS-CoV-2 Replication” (J Nat Prod, 2023).

What was measured:
[1] = system: SARS-CoV-2; assay: Antiviral activity against SARS-CoV-2 B.1 lineage isolate infected in human Calu-3 cells assessed as inhibition of viral replication infected with cells for 1 hr followed by compound addition and measured 24 hrs post infection by crystal violet staining based PFU assay; assay type: functional, organism-based; settings: Severe acute respiratory syndrome coronavirus 2, B.1, Calu-3
[2] = Cytotoxicity against human Calu-3 cells assessed as reduction in cell viability incubated for 72 hrs by methylene blue assay; assay type: toxicity, cell-based
[3] = system: SARS-CoV-2; assay: Antiviral activity against SARS-CoV-2 B.1 lineage isolate infected in human Calu-3 cells assessed as inhibition of viral replication at 10 uM infected with cells for 1 hr followed by compound addition and measured 24 hrs post infection by crystal violet staining based PFU assay relative to control; assay type: functional; settings: Severe acute respiratory syndrome coronavirus 2, B.1, Calu-3
[4] = Cytotoxicity against human Calu-3 cells assessed as cell viability at 250 uM incubated for 72 hrs by methylene blue assay relative to control; assay type: toxicity, cell-based; settings: read-out: Activity
[5] = system: SARS-CoV-2; assay: Antiviral activity against SARS-CoV-2 B.1 lineage isolate infected in human Calu-3 cells assessed as inhibition of viral replication at 1 uM infected with cells for 1 hr followed by compound addition and measured 24 hrs post infection by crystal violet staining based PFU assay relative to control; assay type: functional; settings: Severe acute respiratory syndrome coronavirus 2, B.1, Calu-3
[6] = Selectivity index, ratio of CC50 for cytotoxicity against human Calu-3 cells to EC50 for antiviral activity against SARS-CoV-2 B.1 lineage isolate infected in human Calu-3 cells; assay type: toxicity, cell-based; settings: read-out: Ratio CC50/EC50
[7] = system: SARS-CoV-2; assay: Antiviral activity against SARS-CoV-2; assay type: functional, organism-based; settings: Severe acute respiratory syndrome coronavirus 2
[8] = system: SARS-CoV-2; assay: Potency index, ratio of myricetin EC50 to test compound EC50 for antiviral activity against SARS-CoV-2 infected in human Calu-3 cells assessed as inhibition of viral replication; assay type: functional, Severe acute respiratory syndrome coronavirus 2
[9] = system: SARS-CoV-2; assay: Potency index, ratio of baicalein EC50 to test compound EC50 for antiviral activity against SARS-CoV-2 infected in human Calu-3 cells assessed as inhibition of viral replication; assay type: functional, Severe acute respiratory syndrome coronavirus 2
[10] = system: SARS-CoV-2; assay: Antiviral activity against SARS-CoV-2 B.1 lineage infected in human Calu-3 cells assessed as inhibition of viral replication; assay type: functional, organism-based; settings: Severe acute respiratory syndrome coronavirus 2, B.1, Calu-3
[11] = Cytotoxicity against African green monkey Vero E6 cells assessed as reduction in cell viability by CCK8 assay; assay type: toxicity, cell-based, Vero C1008; settings: chlorocebus sabaeus
[12] = system: SARS-CoV-2; assay: Antiviral activity against SARS-CoV-2 infected in human Calu-3 cells; assay type: functional, organism-based; settings: Severe acute respiratory syndrome coronavirus 2, Calu-3
[13] = system: SARS-CoV-2; assay: Antiviral activity against SARS-CoV-2 infected in human Calu-3 cells assessed as inhibition of viral replication incubated for 48 hrs by PFU assay; assay type: functional, organism-based; settings: Severe acute respiratory syndrome coronavirus 2, Calu-3, 48 h
[14] = system: SARS-CoV-2; assay: Antiviral activity against SARS-CoV-2 in presence of ritonavir; assay type: functional, organism-based; settings: Severe acute respiratory syndrome coronavirus 2
[15] = system: SARS-CoV-2; assay: Antiviral activity against SARS-CoV-2 in presence of lopinavir; assay type: functional, organism-based; settings: Severe acute respiratory syndrome coronavirus 2

| SMILES | EC50 [1] | CC50 at 72 h [2] | inhibition at 10 µM [3] | viability at 72 h, 250 µM [4] | inhibition at 1 µM [5] | selectivity ratio [6] | further results |
| --- | --- | --- | --- | --- | --- | --- | --- |
| COc1ccc(/C=C2\Oc3cc(O)ccc3C2=O)cc1 | > 10 µM | > 250 µM | 24% | ≥ 80% | – | – | – |
| COc1ccc2c(c1)O/C(=C\c1ccc(O)cc1)C2=O | 2.8 µM | > 300 µM | 88.3% | ≥ 80% | 25% | > 107 | – |
| COc1ccc(/C=C2\Oc3cc(O)cc(O)c3C2=O)cc1 | – | – | 68.4% | ≥ 80% | – | – | – |
| O=C1/C(=C/c2ccc3c(c2)OCO3)Oc2ccccc21 | – | – | 44.6% | ≥ 80% | 69.5% | – | – |
| COc1cc(/C=C2\Oc3ccccc3C2=O)cc(OC)c1OC | 5.8 µM | > 250 µM | 66.4% | ≥ 80% | – | > 43.1 | – |
| COc1ccc(/C=C2\Oc3cc(OC)ccc3C2=O)cc1 | 1.5 µM | > 300 µM | 94.8% | ≥ 80% | 46.5% | > 200 | – |
| CCC(CC)COC(=O)[C@H](C)N[P@](=O)(OC[C@H]1O[C@@](C#N)(c2ccc3c(N)ncnn23)[C@H](O)[C@@H]1O)Oc1ccccc1 | – | – | – | – | – | – | EC50 [7]: 2.5 µM |
| COc1ccc(/C=C2\Oc3cc(O)ccc3C2=O)cc1O | 5.6 µM | > 250 µM | 24.4% | ≥ 80% | 70.4% | > 44.6 | – |
| COc1ccc(/C=C2\Oc3cc(OC(F)F)ccc3C2=O)cc1 | 0.9 µM | > 300 µM | 97.1% | ≥ 80% | 69.9% | > 333 | – |
| COCOc1cc(/C=C2\Oc3ccccc3C2=O)ccc1OC | 1 µM | > 300 µM | 97.6% | ≥ 80% | 60.3% | > 300 | – |
| COCOc1ccc2c(c1OCOC)O/C(=C\c1ccc(OC)cc1)C2=O | – | – | 58.2% | ≥ 80% | < 1% | – | – |
| COCOc1cc(OCOC)c2c(c1)O/C(=C\c1ccc(OC)cc1)C2=O | – | – | 95.2% | ≥ 80% | < 1% | – | – |
| COCOc1cc(/C=C2\Oc3cc(OC)ccc3C2=O)ccc1OC | 2.3 µM | > 1000 µM | 88.2% | ≥ 80% | 34.1% | > 435 | – |
| COCOc1ccc2c(c1)O/C(=C\c1ccc(OC)cc1OCOC)C2=O | 0.35 µM | 976 µM | 96.2% | ≥ 80% | 82.5% | 2440 | Ratio EC50 [8]: 2; Ratio EC50 [9]: 3 |
| COc1ccc(/C=C2\Oc3cc(OCc4ccccc4)ccc3C2=O)cc1 | 2.2 µM | > 300 µM | 91% | ≥ 80% | 36.1% | > 136 | – |
| COc1ccc2c(c1)O/C(=C\c1ccccc1)C2=O | 0.49 µM | > 1000 µM | 99.7% | ≥ 80% | 59.1% | > 2000 | – |
| COc1ccc(/C=C2\Oc3cc4c(cc3C2=O)OCO4)cc1 | 2 µM | > 1000 µM | 95.8% | ≥ 80% | 32.5% | > 500 | – |
| COc1cccc2c1C(=O)/C(=C/c1ccccc1)O2 | – | – | 90.9% | ≥ 80% | < 1% | – | – |

| SMILES | EC50 [1] | CC50 at 72 h [2] | inhibition at 10 µM [3] | viability at 72 h, 250 µM [4] | inhibition at 1 µM [5] | selectivity ratio [6] | further results |
| --- | --- | --- | --- | --- | --- | --- | --- |
| COCOc1cc(OC)ccc1/C=C1\Oc2ccccc2C1=O | 8.2 µM | > 250 µM | 58.3% | ≥ 80% | – | > 30.5 | – |
| COCOc1ccc2c(c1)O/C(=C\c1ccc(OC)cc1)C2=O | 0.58 µM | > 1000 µM | 98% | ≥ 80% | 77.6% | > 1670 | – |
| COc1ccc(/C=C2\Oc3cc(OCc4ccc(F)cc4)ccc3C2=O)cc1 | 2.9 µM | > 300 µM | 85.2% | ≥ 80% | 14.5% | > 104 | – |
| COc1ccc(/C=C2\Oc3c(ccc(O)c3O)C2=O)cc1 | 4.6 µM | > 300 µM | 62.2% | ≥ 80% | 25.9% | > 65.2 | – |
| COCOc1ccc2c(c1)O/C(=C\c1ccc(OC)c(OCOC)c1)C2=O | 0.5 µM | 817 µM | 95.4% | ≥ 80% | 77% | 1630 | – |
| O=C1/C(=C/c2ccc(Cl)cc2)Oc2ccccc21 | – | – | 68.8% | ≥ 80% | – | – | – |
| COc1ccc(/C=C2\Oc3ccccc3C2=O)cc1 [4'-METHOXY-AURONE] | – | – | 66.9% | ≥ 80% | 29.2% | – | – |
| O=C1/C(=C/c2ccccc2)Oc2ccccc21 [(Z)-AURONE] | – | – | 81.2% | ≥ 80% | < 1% | – | – |
| O=c1cc(-c2ccc(O)cc2)oc2cc(O)cc(O)c12 [APIGENIN] | – | – | – | – | – | – | EC50 [10]: 5.1 µM |
| O=c1cc(-c2ccccc2)oc2cc(O)c(O)c(O)c12 [BAICALEIN] | – | – | – | – | – | – | CC50 [11]: > 200 µM; EC50 [12]: 1.2 µM |
| O=c1c(O)c(-c2ccc(O)cc2)oc2cc(O)cc(O)c12 [KAEMPFEROL] | – | – | – | – | – | – | EC50 [10]: 3 µM |
| COc1cc(O)c2c(=O)c(OC)c(-c3ccc(O)cc3)oc2c1 [KUMATAKENIN] | – | – | – | – | – | – | EC50 [13]: 0.3 µM |
| Cc1cccc(C)c1OCC(=O)N[C@@H](Cc1ccccc1)[C@@H](O)C[C@H](Cc1ccccc1)NC(=O)[C@H](C(C)C)N1CCCNC1=O [LOPINAVIR] | – | – | – | – | – | – | EC50 [14]: 5 µM |
| CC(C)C(=O)OC[C@H]1O[C@@H](n2cc/c(=N\O)[nH]c2=O)[C@H](O)[C@@H]1O [MOLNUPIRAVIR] | – | – | – | – | – | – | EC50 [7]: 2 µM |
| O=c1c(O)c(-c2cc(O)c(O)c(O)c2)oc2cc(O)cc(O)c12 [MYRICETIN] | – | – | – | – | – | – | EC50 [10]: 0.9 µM |
| O=c1c(O)c(-c2ccc(O)c(O)c2)oc2cc(O)cc(O)c12 [QUERCETIN] | – | – | – | – | – | – | EC50 [10]: 2.4 µM |
| COc1cc(O)c2c(=O)c(OC)c(-c3ccc(OC)c(OC)c3)oc2c1 [RETUSIN] | – | – | – | – | – | – | EC50 [13]: 0.6 µM |
| CC(C)c1nc(CN(C)C(=O)N[C@H](C(=O)N[C@@H](Cc2ccccc2)C[C@H](O)[C@H](Cc2ccccc2)NC(=O)OCc2cncs2)C(C)C)cs1 [RITONAVIR] | – | – | – | – | – | – | EC50 [15]: 5 µM |
